IC50 data for nine compounds are collected here from ChEMBL document CHEMBL5104202, “Structure-Uptake Relationship Studies of Oxazolidinones in Gram-Negative ESKAPE Pathogens” (J Med Chem, 2022).

The structures appear in SMILES notation.

Common to all, as to type: functional, organism-based
In assay [1] the test system is Acinetobacter baumannii. In words: Antibacterial activity against efflux pump lacking Acinetobacter baumannii assessed as inhibition of bacterial growth.
In assay [2] the test system is Acinetobacter baumannii. The assay is described as follows: Antibacterial activity against efflux pump lacking/recombinant OM pore producing Acinetobacter baumannii assessed as inhibition of bacterial growth.
Assay [3] relates to Acinetobacter baumannii. In words: Antibacterial activity against recombinant OM pore producing Acinetobacter baumannii assessed as inhibition of bacterial growth.
In assay [4] the test system is Acinetobacter baumannii. The assay is described as follows: Antibacterial activity against wild type Acinetobacter baumannii assessed as inhibition of bacterial growth.
The test system of assay [5] is Escherichia coli. In words: Antibacterial activity against wild type Escherichia coli assessed as inhibition of bacterial growth.
Assay [6] concerns Escherichia coli. In words: Antibacterial activity against recombinant OM pore producing Escherichia coli assessed as inhibition of bacterial growth.
Assay [7] relates to Escherichia coli. In words: Antibacterial activity against efflux pump lacking Escherichia coli assessed as inhibition of bacterial growth.
The subject of assay [8] is Escherichia coli. The assay is described as follows: Antibacterial activity against efflux pump lacking/recombinant OM pore producing Escherichia coli assessed as inhibition of bacterial growth.
In assay [9] the test system is Pseudomonas aeruginosa. The assay is described as follows: Antibacterial activity against wild type Pseudomonas aeruginosa assessed as inhibition of bacterial growth.
The subject of assay [10] is Pseudomonas aeruginosa. In words: Antibacterial activity against recombinant OM pore producing Pseudomonas aeruginosa assessed as inhibition of bacterial growth.
Assay [11] deals with Pseudomonas aeruginosa. In words: Antibacterial activity against efflux pump lacking Pseudomonas aeruginosa assessed as inhibition of bacterial growth.
Assay [12] has as its system Pseudomonas aeruginosa. In words: Antibacterial activity against efflux pump lacking/recombinant OM pore producing Pseudomonas aeruginosa assessed as inhibition of bacterial growth.

As to `O=C1O[C@@H](CO)CN1c1ccc(C#Cc2cc(Cl)cc(Cl)c2)c(F)c1`, the IC50 with Acinetobacter baumannii [1] is over 100 µM; in the assay with Acinetobacter baumannii [2], over 100 µM; with Acinetobacter baumannii [3] it was over 100 µM; in the assay with Acinetobacter baumannii [4], over 100 µM; in the assay on Escherichia coli [5], 74.8 µM; in the assay on Escherichia coli [6], 12.8 µM. Besides, the half-maximal inhibitory concentration (IC50) was 26.1 µM with Escherichia coli [7]; 3.6 µM in the assay with Escherichia coli [8]; over 100 µM in the assay on Pseudomonas aeruginosa [9]; over 100 µM with Pseudomonas aeruginosa [10]; 64.9 µM with Pseudomonas aeruginosa [11]; 16.2 µM with Pseudomonas aeruginosa [12].

On to `CCOC(=O)C(C)(C)CC#Cc1ccc(N2C[C@H](CO)OC2=O)cc1F`, for which the IC50 was 44 µM in the assay on Acinetobacter baumannii [1]; 30.3 µM in the assay on Acinetobacter baumannii [2]; 60.3 µM in the assay with Acinetobacter baumannii [3]; over 100 µM in the assay with Acinetobacter baumannii [4]; over 100 µM in the assay with Escherichia coli [5]; 65.3 µM in the assay with Escherichia coli [6]. The 50% inhibitory concentration (IC50) in the assay with Escherichia coli [7] was 17.8 µM; in the assay with Escherichia coli [8], 21.9 µM; with Pseudomonas aeruginosa [9] it was over 100 µM; with Pseudomonas aeruginosa [10] it was over 100 µM; in the assay on Pseudomonas aeruginosa [11], over 100 µM; with Pseudomonas aeruginosa [12] it was 30.1 µM.

In the case of `CC(C)(C)Oc1cc(-c2ccc(N3C[C@H](CO)OC3=O)cc2F)cnc1C#N`, the IC50 with Acinetobacter baumannii [1], with Acinetobacter baumannii [2], in the assay with Acinetobacter baumannii [3], in the assay with Acinetobacter baumannii [4], in the assay with Escherichia coli [5] and in the assay on Escherichia coli [6] was over 100 µM in each case. Further, the IC50 with Escherichia coli [7], in the assay with Escherichia coli [8], in the assay with Pseudomonas aeruginosa [9], in the assay on Pseudomonas aeruginosa [10], with Pseudomonas aeruginosa [11] and in the assay on Pseudomonas aeruginosa [12] was over 100 µM in each case.

Take `O=C1O[C@@H](CO)CN1c1ccc(-c2ccc(-c3ccccn3)cc2)c(F)c1`: the IC50 with Acinetobacter baumannii [1] amounted to 21.5 µM; with Acinetobacter baumannii [2], 21.5 µM; in the assay on Acinetobacter baumannii [3] it was 35.3 µM; in the assay on Acinetobacter baumannii [4], 35.3 µM; in the assay on Escherichia coli [5], 76.2 µM; in the assay with Escherichia coli [6], 47.2 µM. Also, the IC50 in the assay on Escherichia coli [7] is 55.6 µM; with Escherichia coli [8] it was 55.2 µM; in the assay on Pseudomonas aeruginosa [9], over 100 µM; with Pseudomonas aeruginosa [10], over 100 µM; in the assay with Pseudomonas aeruginosa [11], over 100 µM; in the assay on Pseudomonas aeruginosa [12], over 100 µM.

Turning to `Cc1nn(C)c(C)c1C#Cc1ccc(N2C[C@H](CO)OC2=O)cc1F`, the IC50 with Acinetobacter baumannii [1] is over 100 µM; in the assay with Acinetobacter baumannii [2], over 100 µM; in the assay on Acinetobacter baumannii [3] it was over 100 µM; with Acinetobacter baumannii [4], over 100 µM; with Escherichia coli [5], over 100 µM; in the assay with Escherichia coli [6] it was 1.2 µM. For the same compound, the IC50 with Escherichia coli [7] was 86.3 µM; in the assay with Escherichia coli [8], 3.4 µM; in the assay on Pseudomonas aeruginosa [9], over 100 µM; in the assay on Pseudomonas aeruginosa [10], over 100 µM; in the assay on Pseudomonas aeruginosa [11], over 100 µM; in the assay with Pseudomonas aeruginosa [12] it was over 100 µM.

With `O=C1O[C@@H](CO)CN1c1ccc(-c2ccc3cnccc3c2)c(F)c1`, the IC50 in the assay with Acinetobacter baumannii [1] was 5.6 µM; in the assay on Acinetobacter baumannii [2] it was 5.6 µM; in the assay with Acinetobacter baumannii [3], over 100 µM; with Acinetobacter baumannii [4], over 100 µM; in the assay on Escherichia coli [5], over 100 µM; in the assay on Escherichia coli [6], over 100 µM. Moreover, the concentration for half-maximal inhibition (IC50) in the assay with Escherichia coli [7] is over 100 µM; in the assay with Escherichia coli [8] it was over 100 µM; in the assay on Pseudomonas aeruginosa [9], over 100 µM; in the assay with Pseudomonas aeruginosa [10] it was over 100 µM; with Pseudomonas aeruginosa [11] it was 67.7 µM; in the assay on Pseudomonas aeruginosa [12], 37.9 µM.

As for `O=C1O[C@@H](CO)CN1c1ccc(-c2ccc(-c3ccncc3)cc2)c(F)c1`, the IC50 in the assay on Acinetobacter baumannii [1], in the assay with Acinetobacter baumannii [2], in the assay on Acinetobacter baumannii [3], in the assay on Acinetobacter baumannii [4], in the assay with Escherichia coli [5] and with Escherichia coli [6] was over 100 µM throughout. For the same compound, the IC50 is over 100 µM in the assay with Escherichia coli [7]; 75.2 µM in the assay with Escherichia coli [8]; over 100 µM in the assay with Pseudomonas aeruginosa [9]; over 100 µM in the assay with Pseudomonas aeruginosa [10]; 92.1 µM in the assay with Pseudomonas aeruginosa [11]; 1 µM in the assay on Pseudomonas aeruginosa [12].

As for `O=C1O[C@@H](CO)CN1c1ccc(-c2ccc(O)cc2)c(F)c1`, the IC50 in the assay with Acinetobacter baumannii [1] was 8.4 µM; in the assay with Acinetobacter baumannii [2] it was 7.3 µM; in the assay with Acinetobacter baumannii [3], 12.9 µM; in the assay on Acinetobacter baumannii [4], over 100 µM; in the assay with Escherichia coli [5] it was over 100 µM; with Escherichia coli [6], 22.1 µM. In addition, the IC50 in the assay with Escherichia coli [7] was 2 µM; in the assay on Escherichia coli [8], 2.3 µM; with Pseudomonas aeruginosa [9], over 100 µM; in the assay with Pseudomonas aeruginosa [10] it was 27.7 µM; with Pseudomonas aeruginosa [11], 8.4 µM; in the assay with Pseudomonas aeruginosa [12] it was 5.8 µM.

As for `C[n+]1ccc2ccc(-c3ccc(N4C[C@H](CO)OC4=O)cc3F)cc2c1`, the IC50 in the assay with Acinetobacter baumannii [1] was 48.6 µM; with Acinetobacter baumannii [2] it was 9.4 µM; with Acinetobacter baumannii [3], 27.4 µM; in the assay with Acinetobacter baumannii [4], over 100 µM; in the assay with Escherichia coli [5] it was over 100 µM; in the assay with Escherichia coli [6], 21 µM. The 50% inhibitory concentration (IC50) was 5.6 µM in the assay with Escherichia coli [7]; 9.6 µM in the assay on Escherichia coli [8]; over 100 µM in the assay on Pseudomonas aeruginosa [9]; over 100 µM in the assay with Pseudomonas aeruginosa [10]; over 100 µM in the assay on Pseudomonas aeruginosa [11]; over 100 µM with Pseudomonas aeruginosa [12].
